According to US8273880B2, “Pyrazole compounds with inhibitory activity against ROS kinase” (Korea Institute of Science and Technology, priority 2009, dated 2012):
Entries after “also recorded” stand apart in the source; their conditions may differ.

Columns and labels:
ROS kinase = ROS kinase (Homo sapiens, UniProt P08922); test: ROS kinase screening (HotSpot, IC50 mode); assay type: biochemical; parameters: purchased Reaction Biology Corporation; conditions: 10-dose IC50 mode starting from 20 μM; 10 μM ATP; read-out: Inhibitory Activity against ROS (IC50)
Chain of ROS kinase (P08922 28-2347): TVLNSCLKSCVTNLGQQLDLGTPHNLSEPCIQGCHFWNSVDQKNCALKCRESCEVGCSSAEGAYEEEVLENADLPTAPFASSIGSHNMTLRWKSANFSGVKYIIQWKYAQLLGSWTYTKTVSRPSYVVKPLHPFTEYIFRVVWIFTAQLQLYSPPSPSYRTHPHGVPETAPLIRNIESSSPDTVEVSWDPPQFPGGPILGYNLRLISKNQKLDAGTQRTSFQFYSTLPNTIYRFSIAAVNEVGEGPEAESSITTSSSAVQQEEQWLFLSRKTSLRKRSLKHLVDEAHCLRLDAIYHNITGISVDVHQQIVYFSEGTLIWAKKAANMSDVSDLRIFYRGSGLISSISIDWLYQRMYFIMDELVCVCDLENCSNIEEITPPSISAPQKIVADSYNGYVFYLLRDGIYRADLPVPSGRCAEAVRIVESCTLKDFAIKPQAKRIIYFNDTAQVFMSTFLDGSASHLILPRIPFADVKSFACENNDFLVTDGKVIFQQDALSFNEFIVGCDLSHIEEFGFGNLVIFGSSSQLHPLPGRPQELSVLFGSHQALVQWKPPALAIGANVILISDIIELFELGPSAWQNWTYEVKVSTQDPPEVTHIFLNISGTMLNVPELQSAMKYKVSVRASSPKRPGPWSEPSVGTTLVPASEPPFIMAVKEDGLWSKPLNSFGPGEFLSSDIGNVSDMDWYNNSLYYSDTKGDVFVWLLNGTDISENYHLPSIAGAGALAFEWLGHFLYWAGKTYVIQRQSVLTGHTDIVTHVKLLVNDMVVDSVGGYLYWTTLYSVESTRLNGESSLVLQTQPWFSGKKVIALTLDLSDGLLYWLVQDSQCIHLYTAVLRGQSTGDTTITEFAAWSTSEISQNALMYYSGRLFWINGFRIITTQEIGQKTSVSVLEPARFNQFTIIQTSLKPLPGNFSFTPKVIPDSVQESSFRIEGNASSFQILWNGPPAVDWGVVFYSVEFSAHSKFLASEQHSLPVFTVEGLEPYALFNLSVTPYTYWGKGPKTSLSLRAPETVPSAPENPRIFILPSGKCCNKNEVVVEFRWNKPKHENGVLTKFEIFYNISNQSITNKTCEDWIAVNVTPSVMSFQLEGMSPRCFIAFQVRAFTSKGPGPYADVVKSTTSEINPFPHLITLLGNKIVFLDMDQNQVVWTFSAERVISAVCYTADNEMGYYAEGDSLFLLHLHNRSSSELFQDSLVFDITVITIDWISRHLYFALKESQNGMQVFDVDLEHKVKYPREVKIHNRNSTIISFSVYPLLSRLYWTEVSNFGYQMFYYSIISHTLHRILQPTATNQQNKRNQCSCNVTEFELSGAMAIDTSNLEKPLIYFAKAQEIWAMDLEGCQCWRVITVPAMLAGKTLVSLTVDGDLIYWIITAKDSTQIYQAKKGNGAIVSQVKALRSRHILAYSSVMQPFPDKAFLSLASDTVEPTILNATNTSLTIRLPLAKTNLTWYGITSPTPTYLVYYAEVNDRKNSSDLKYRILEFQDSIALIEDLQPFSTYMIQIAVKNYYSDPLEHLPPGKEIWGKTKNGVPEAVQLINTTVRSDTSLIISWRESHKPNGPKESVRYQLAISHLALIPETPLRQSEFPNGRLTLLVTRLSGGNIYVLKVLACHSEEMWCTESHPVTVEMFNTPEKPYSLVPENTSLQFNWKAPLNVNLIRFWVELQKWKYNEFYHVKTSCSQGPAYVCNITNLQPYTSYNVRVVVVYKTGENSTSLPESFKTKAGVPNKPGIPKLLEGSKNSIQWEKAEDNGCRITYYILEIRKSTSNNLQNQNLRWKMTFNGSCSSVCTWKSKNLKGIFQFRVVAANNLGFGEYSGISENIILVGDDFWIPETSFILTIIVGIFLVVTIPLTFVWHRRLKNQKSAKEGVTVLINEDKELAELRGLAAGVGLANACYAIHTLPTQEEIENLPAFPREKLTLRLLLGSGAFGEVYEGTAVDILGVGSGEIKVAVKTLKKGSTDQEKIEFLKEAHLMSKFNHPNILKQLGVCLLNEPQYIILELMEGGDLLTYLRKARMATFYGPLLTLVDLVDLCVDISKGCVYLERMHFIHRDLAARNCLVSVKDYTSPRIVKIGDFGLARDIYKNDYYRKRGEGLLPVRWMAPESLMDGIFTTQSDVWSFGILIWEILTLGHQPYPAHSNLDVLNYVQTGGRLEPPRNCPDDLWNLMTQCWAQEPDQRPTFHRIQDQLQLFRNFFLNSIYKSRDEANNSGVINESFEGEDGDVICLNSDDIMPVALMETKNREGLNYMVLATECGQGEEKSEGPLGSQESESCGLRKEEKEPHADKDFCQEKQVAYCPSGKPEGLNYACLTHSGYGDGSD
Description: (§1) Kinase screening was performed using a “HotSpot” assay platform commercially available from Reaction Biology Corporation. For this kinase screening, reaction buffers were based on 20 mM Hepes (pH 7.5), 10 mM MgCl2, 1 mM EGTA, 0.02% Brij35, 0.02 mg/mL BSA, 0.1 mM Na3VO4, 2 mM DTT, and 1% DMSO, with supplementary factors necessary for respective kinase reactions added thereto. In each enzyme reaction, […] of each kinase was used together with a fresh reaction buffer and appropriate supplementary factors. A solution of each compound in DMSO was added in a suitable concentration to the reaction buffer. Kinase reaction started with the introduction of […] (specific activity […]) and continued for 2 hours at room temperature.
The reaction was performed with 10 μM ATP.

45 different kinases = test: Kinase selectivity from screening over 45 different kinases; assay type: biochemical
Description: as §1
1) Screening of Compounds Over 45 Different Kinases
Each compound was tested twice at a single dose concentration of 10 μM. […] The reaction was performed with 10 μM ATP.

## Cc1cc(O)cc(-c2nn(CC#N)cc2-c2ccnc(-c3cccnc3)c2)c1 [Example 44, [3-(3-hydroxy-5-methylphenyl)-4-(2-(pyridin-3-yl)pyridin-4-yl)-pyrazol-1-yl]acetonitrile]
ROS kinase
  IC50: 0.209 µM
45 different kinases
  Notes (selectivity for ROS): ROS selectivity; also recorded: Selective for ROS
